Values quoted from earlier work in patent US10328067B2, “Pharmaceutical oral dose formulation and composition of matter” (priority 2016, dated 2019).

Details: result in words; p-glycoprotein substrate

intestinal absorption: negligible intestinal absorption
Structure (SMILES): CC[C@]1(O)C[C@@H]2CN(CCc3c([nH]c4ccccc34)[C@@](C(=O)OC)(c3cc4c(cc3OC)N(C)[C@H]3[C@@](O)(C(=O)OC)[C@H](OC(C)=O)[C@]5(CC)C=CCN6CC[C@]43[C@@H]65)C2)C1 [vinblastine]
